Laboratory results: patent US20060111396A1, “4-Phenyl substituted tetrahydroisoquinolines and use thereof to block reuptake of norepinephrine, dopamine and serotonin” (AMR Technology, Inc., priority 2004, published 2006)
Values joined by “and” are separate entries in the source; they are usually repeats but may differ in a detail not shown here. Equal values may be shown once. Where a name gives a salt, the structure may show the parent alone.

Tested on: dopamine transporter protein over the norepinephrine transporter protein
Conditions: selectivity for dopamine transporter protein over norepinephrine transporter protein; cited from earlier work

| SMILES | DAT/NET Ki ratio |
| --- | --- |
| COC(=O)C(c1ccccc1)C1CCCCN1 (stereo not drawn) [Methylphenidate] | 0.1 |

Tested on: not given
Conditions: not given

| SMILES | melting point |
| --- | --- |
| CN1Cc2cc(C(F)(F)F)ccc2C(c2ccccc2)C1 (stereo not drawn) | 257 to 275 °C |
| Cc1ccc2c(c1)C(C)N(C)CC2c1ccccc1 (stereo not drawn) | 87 to 89 °C |
| FCc1ccc2c(c1CF)CN(CF)CC2c1ccccc1 (stereo not drawn) | 108 to 113 °C |
| Cc1c(F)ccc2c1CN(C)CC2c1ccccc1 (stereo not drawn) | 185 to 186 °C |
| COc1c(C)ccc2c1CN(C)CC2c1ccccc1 (stereo not drawn) | 130 to 131 °C |
| Cc1ccc2c(c1O)CN(C)CC2c1ccccc1 (stereo not drawn) | 260 to 261 °C |
| CN1Cc2cc(OC(F)(F)F)ccc2C(c2ccccc2)C1 (stereo not drawn) | 150 to 151 °C (dec.) |
| CN1Cc2cc(Oc3ccccc3)ccc2C(c2ccccc2)C1 (stereo not drawn) | 175 to 176 °C (dec.) |
| CN1Cc2cc(OCc3ccccc3)ccc2C(c2ccccc2)C1 (stereo not drawn) | 155 to 156 °C |
| Cc1ccc2c(c1)CN(C)CC2c1ccc(F)c(C)c1 (stereo not drawn) | 174 to 175 °C |
| CNCc1cccc2c1CN(C)CC2c1ccccc1 (stereo not drawn) | 278 to 282 °C |
| CN1Cc2c(CO)cccc2C(c2ccccc2)C1 (stereo not drawn) | 144 to 146 °C |
| CN1Cc2ccccc2C(c2cc(F)cc(F)c2)C1 (stereo not drawn) (as salt: HCl) | 230 to 233 °C and 230 to 235 °C |
| Cc1cc(F)c2c(c1)C(C)N(C)C(F)C2c1ccccc1 (stereo not drawn) (as salt: HCl) | 194 to 197 °C (dec.) |
| CNCc1ccc2c(c1F)CN(C)CC2c1ccccc1 (stereo not drawn) (as salt: HCl) | 185 to 205 °C |
| CN1Cc2cc(CO)ccc2C(c2ccccc2)C1 (stereo not drawn) (as salt: HCl) | 237 to 240 °C (dec.) |
| Cc1ccc2c(c1F)CN(C)CC2c1ccccc1 (stereo not drawn) (as salt: hydrochloride) | 215 to 216 °C |
